Data: US9347057B2, “Methods for efficient, expansive user-defined DNA mutagenesis” (THE JOHNS HOPKINS UNIVERSITY, priority 2012, dated 2016)

How the values were obtained:
Type in all cases: cell-based, E. coli
Conditions in all cases: Escherichia coli
TEM-1 R244S allele = experiment: MIC assay on agar plates, TEM-1 allele R244S
Procedure: (§1) Selected single base mutations were re-introduced into TEM-1 by site-directed PFunkel mutagenesis on the 20 μL volume scale. The MIC for ampicillin and piperacillin of the mutants was assessed with and without 6 μg/mL tazobactam by spotting 10^4 CFU on Mueller-Hinton agar plates containing 50 μg/mL Spec, 300 μM IPTG, and √2-fold increments of either ampicillin or piperacillin. Plates were incubated at 37° C. for 12 hrs.

TEM-1 Y105N allele = experiment: MIC assay on agar plates, TEM-1 allele Y105N
Procedure: as §1

TEM-1 Y105D allele = experiment: MIC assay on agar plates, TEM-1 allele Y105D
Procedure: as §1

TEM-1 N276D allele = experiment: MIC assay on agar plates, TEM-1 allele N276D
Procedure: as §1

TEM-1 M69L allele = experiment: MIC assay on agar plates, TEM-1 allele M69L
Procedure: as §1

TEM-1 S235T allele = experiment: MIC assay on agar plates, TEM-1 allele S235T
Procedure: as §1

[1] = tested on: wildtype TEM-1 (allele: none); experiment: MIC assay on agar plates, cells with TEM-1 (no mutation)
Procedure: as §1

TEM-1 Y105S allele = experiment: MIC assay on agar plates, TEM-1 allele Y105S
Procedure: as §1

[2] = + tazobactam 6 μg/mL, median of three replicates
[3] = + tazobactam 6 μg/mL, replicate 1
[4] = + tazobactam 6 μg/mL, replicate 2
[5] = + tazobactam 6 μg/mL, replicate 3
[6] = − tazobactam, median of three replicates

SMILES: CC1(C)S[C@@H]2[C@H](NC(=O)[C@H](N)c3ccccc3)C(=O)N2[C@H]1C(=O)O [ampicillin]
- MIC (TEM-1 R244S allele; [2]): 90.5 µg/mL
- MIC (TEM-1 R244S allele; [3]): 64 µg/mL
- MIC (TEM-1 R244S allele; [4]): 128 µg/mL
- MIC (TEM-1 R244S allele; [5]): 90.5 µg/mL
- MIC (TEM-1 R244S allele; [6]): 4100 µg/mL
- MIC (TEM-1 R244S allele; − tazobactam, replicate 1): 2900 µg/mL
- MIC (TEM-1 R244S allele; − tazobactam, replicate 2): 4100 µg/mL
- MIC (TEM-1 R244S allele; − tazobactam, replicate 3): 4100 µg/mL
- MIC (TEM-1 Y105N allele; [2]): 1450 µg/mL
- MIC (TEM-1 Y105N allele; [3]): 148 µg/mL
- MIC (TEM-1 Y105N allele; [4]): 1450 µg/mL
- MIC (TEM-1 Y105N allele; [5]): 1450 µg/mL
- MIC (TEM-1 Y105N allele; [6]): 5790 µg/mL
- MIC (TEM-1 Y105N allele; − tazobactam, replicate 1): 4100 µg/mL
- MIC (TEM-1 Y105N allele; − tazobactam, replicate 2): 5790 µg/mL
- MIC (TEM-1 Y105N allele; − tazobactam, replicate 3): 5790 µg/mL
- MIC (TEM-1 Y105D allele; [2]): 256 µg/mL
- MIC (TEM-1 Y105D allele; [3]): 256 µg/mL
- MIC (TEM-1 Y105D allele; [4]): 256 µg/mL
- MIC (TEM-1 Y105D allele; [5]): 362 µg/mL
- MIC (TEM-1 Y105D allele; [6]): 1450 µg/mL
- MIC (TEM-1 Y105D allele; − tazobactam, replicate 1): 1450 µg/mL
- MIC (TEM-1 Y105D allele; − tazobactam, replicate 2): 1450 µg/mL
- MIC (TEM-1 Y105D allele; − tazobactam, replicate 3): 1450 µg/mL
- MIC (TEM-1 N276D allele; [2]): 90.5 µg/mL
- MIC (TEM-1 N276D allele; [3]): 90.5 µg/mL
- MIC (TEM-1 N276D allele; [4]): 90.5 µg/mL
- MIC (TEM-1 N276D allele; [5]): 128 µg/mL
- MIC (TEM-1 N276D allele; [6]): 8190 µg/mL
- MIC (TEM-1 N276D allele; − tazobactam, replicate 1): 8190 µg/mL
- MIC (TEM-1 N276D allele; − tazobactam, replicate 2): 8190 µg/mL
- MIC (TEM-1 N276D allele; − tazobactam, replicate 3): 8190 µg/mL
- MIC (TEM-1 M69L allele; [2]): 724 µg/mL
- MIC (TEM-1 M69L allele; [3]): 512 µg/mL
- MIC (TEM-1 M69L allele; [4]): 724 µg/mL
- MIC (TEM-1 M69L allele; [5]): 724 µg/mL
- MIC (TEM-1 M69L allele; [6]): 8190 µg/mL
- MIC (TEM-1 M69L allele; − tazobactam, replicate 1): 5790 µg/mL
- MIC (TEM-1 M69L allele; − tazobactam, replicate 2): 8190 µg/mL
- MIC (TEM-1 M69L allele; − tazobactam, replicate 3): 8190 µg/mL
- MIC (TEM-1 S235T allele; [2]): 362 µg/mL
- MIC (TEM-1 S235T allele; [3]): 256 µg/mL
- MIC (TEM-1 S235T allele; [4]): 362 µg/mL
- MIC (TEM-1 S235T allele; [5]): 512 µg/mL
- MIC (TEM-1 S235T allele; [6]): 8190 µg/mL
- MIC (TEM-1 S235T allele; − tazobactam, replicate 1): 8190 µg/mL
- MIC (TEM-1 S235T allele; − tazobactam, replicate 2): 8190 µg/mL
- MIC (TEM-1 S235T allele; − tazobactam, replicate 3): 8190 µg/mL
- MIC [1, 2]: 22.6 µg/mL
- MIC [1, 3]: 16 µg/mL
- MIC [1, 4]: 22.6 µg/mL
- MIC [1, 5]: 22.6 µg/mL
- MIC [1, 6]: 8190 µg/mL
- MIC ([1]; − tazobactam, replicate 1): 8190 µg/mL
- MIC ([1]; − tazobactam, replicate 2): 8190 µg/mL
- MIC ([1]; − tazobactam, replicate 3): 8190 µg/mL
- MIC (TEM-1 Y105S allele; [2]): 1020 µg/mL
- MIC (TEM-1 Y105S allele; [3]): 724 µg/mL
- MIC (TEM-1 Y105S allele; [4]): 1020 µg/mL
- MIC (TEM-1 Y105S allele; [5]): 1020 µg/mL
- MIC (TEM-1 Y105S allele; [6]): 2900 µg/mL
- MIC (TEM-1 Y105S allele; − tazobactam, replicate 1): 2900 µg/mL
- MIC (TEM-1 Y105S allele; − tazobactam, replicate 2): 2900 µg/mL
- MIC (TEM-1 Y105S allele; − tazobactam, replicate 3): 2900 µg/mL

SMILES: CCN1CCN(C(=O)N[C@@H](C(=O)N[C@@H]2C(=O)N3[C@@H]2SC(C)(C)[C@@H]3C(=O)O)c2ccccc2)C(=O)C1=O [piperacillin]
- MIC (TEM-1 R244S allele; [2]): 2 µg/mL
- MIC (TEM-1 R244S allele; [3]): 2 µg/mL
- MIC (TEM-1 R244S allele; [4]): 2.83 µg/mL
- MIC (TEM-1 R244S allele; [5]): 2 µg/mL
- MIC (TEM-1 R244S allele; [6]): 1450 µg/mL
- MIC (TEM-1 R244S allele; − tazobactam, replicate 1): 1020 µg/mL
- MIC (TEM-1 R244S allele; − tazobactam, replicate 2): 1450 µg/mL
- MIC (TEM-1 R244S allele; − tazobactam, replicate 3): 1450 µg/mL
- MIC (TEM-1 Y105N allele; [2]): 45 µg/mL
- MIC (TEM-1 Y105N allele; [3]): 32 µg/mL
- MIC (TEM-1 Y105N allele; [4]): 45 µg/mL
- MIC (TEM-1 Y105N allele; [5]): 45 µg/mL
- MIC (TEM-1 Y105N allele; [6]): 2050 µg/mL
- MIC (TEM-1 Y105N allele; − tazobactam, replicate 1): 2050 µg/mL
- MIC (TEM-1 Y105N allele; − tazobactam, replicate 2): 2050 µg/mL
- MIC (TEM-1 Y105N allele; − tazobactam, replicate 3): 2050 µg/mL
- MIC (TEM-1 Y105D allele; [2]): 1 µg/mL
- MIC (TEM-1 Y105D allele; [3]): 1 µg/mL
- MIC (TEM-1 Y105D allele; [4]): 1 µg/mL
- MIC (TEM-1 Y105D allele; [5]): 1 µg/mL
- MIC (TEM-1 Y105D allele; [6]): 1.4 µg/mL
- MIC (TEM-1 Y105D allele; − tazobactam, replicate 1): 1.4 µg/mL
- MIC (TEM-1 Y105D allele; − tazobactam, replicate 2): 1.4 µg/mL
- MIC (TEM-1 Y105D allele; − tazobactam, replicate 3): 1.4 µg/mL
- MIC (TEM-1 N276D allele; [2]): 1.4 µg/mL
- MIC (TEM-1 N276D allele; [3]): 1 µg/mL
- MIC (TEM-1 N276D allele; [4]): 1.4 µg/mL
- MIC (TEM-1 N276D allele; [5]): 2 µg/mL
- MIC (TEM-1 N276D allele; [6]): 2900 µg/mL
- MIC (TEM-1 N276D allele; − tazobactam, replicate 1): 2900 µg/mL
- MIC (TEM-1 N276D allele; − tazobactam, replicate 2): 2900 µg/mL
- MIC (TEM-1 N276D allele; − tazobactam, replicate 3): 2900 µg/mL
- MIC (TEM-1 M69L allele; [2]): 22.6 µg/mL
- MIC (TEM-1 M69L allele; [3]): 22.6 µg/mL
- MIC (TEM-1 M69L allele; [4]): 32 µg/mL
- MIC (TEM-1 M69L allele; [5]): 22.6 µg/mL
- MIC (TEM-1 M69L allele; [6]): 2900 µg/mL
- MIC (TEM-1 M69L allele; − tazobactam, replicate 1): 2050 µg/mL
- MIC (TEM-1 M69L allele; − tazobactam, replicate 2): 2900 µg/mL
- MIC (TEM-1 M69L allele; − tazobactam, replicate 3): 2900 µg/mL
- MIC (TEM-1 S235T allele; [2]): 22.6 µg/mL
- MIC (TEM-1 S235T allele; [3]): 32 µg/mL
- MIC (TEM-1 S235T allele; [4]): 16 µg/mL
- MIC (TEM-1 S235T allele; [5]): 22.6 µg/mL
- MIC (TEM-1 S235T allele; [6]): 2900 µg/mL
- MIC (TEM-1 S235T allele; − tazobactam, replicate 1): 2900 µg/mL
- MIC (TEM-1 S235T allele; − tazobactam, replicate 2): 2900 µg/mL
- MIC (TEM-1 S235T allele; − tazobactam, replicate 3): 2900 µg/mL
- MIC [1, 2]: 1.4 µg/mL
- MIC [1, 3]: 1 µg/mL
- MIC [1, 4]: 1.4 µg/mL
- MIC [1, 5]: 1.4 µg/mL
- MIC [1, 6]: 2900 µg/mL
- MIC ([1]; − tazobactam, replicate 1): 2900 µg/mL
- MIC ([1]; − tazobactam, replicate 2): 2900 µg/mL
- MIC ([1]; − tazobactam, replicate 3): 2900 µg/mL
- MIC (TEM-1 Y105S allele; [2]): 16 µg/mL
- MIC (TEM-1 Y105S allele; [3]): 16 µg/mL
- MIC (TEM-1 Y105S allele; [4]): 16 µg/mL
- MIC (TEM-1 Y105S allele; [5]): 16 µg/mL
- MIC (TEM-1 Y105S allele; [6]): 1450 µg/mL
- MIC (TEM-1 Y105S allele; − tazobactam, replicate 1): 1020 µg/mL
- MIC (TEM-1 Y105S allele; − tazobactam, replicate 2): 1450 µg/mL
- MIC (TEM-1 Y105S allele; − tazobactam, replicate 3): 1450 µg/mL
